Structures are written as SMILES. Where a SMILES comes first, the peptide text is derived from it. Bridges are numbered along the chain shown (N, C = ends).

This data set is described as follows: Determination of the protein binding (90% serum, 30 kDa filter, HPLC). In kind it is in vitro ADME. Particulars: serum. As to the method:
Protein binding assays were performed as follows. The purified peptides were mixed with 90% serum and centrifuged through a 30 kDa filter. The ultra-filtrate and the non filtrated serum samples were quantified by HPLC measurements and the protein binding was subsequently calculated.
For orientation: fraction unbound means the share of the substance not bound to proteins or other matrix. The low end stands for little free substance, the high end for much free substance. `CC(C)[C@@H]1NC(=O)[C@@H]2CSSC[C@H](NC(=O)[C@H](CCCCN)NC(=O)[C@H](CCCNC(=N)N)NC(=O)[C@H](C)NC(=O)CNC(=O)[C@H](CC(N)=O)NC(=O)[C@H](CCCNC(=N)N)NC(=O)[C@H](Cc3ccc(O)cc3)NC1=O)C(=O)N[C@@H](Cc1ccc(O)cc1)C(=O)N[C@@H](CCCNC(=N)N)C(=O)N[C@@H](CCCNC(=N)N)C(=O)N[C@H](C(=O)N[C@@H](CC(N)=O)C(=O)O)CSSC[C@H](NC(=O)[C@H](Cc1ccccc1)NC(=O)CN)C(=O)N[C@@H](Cc1c[nH]c3ccccc13)C(=O)N[C@@H](CCCNC(=N)N)C(=O)N[C@@H](C(C)C)C(=O)N2` [compound 313] (H-GFCWRVCVYRNGARKCYRRCN-OH; disulfide 3-20, 7-16 (inferred); N-terminus and C-terminus assumed) gave a fraction unbound of 0.02.

For `CC(C)[C@@H]1NC(=O)CNC(=O)[C@H](CC(N)=O)NC(=O)[C@H](CCCNC(=N)N)NC(=O)[C@H](Cc2ccc(O)cc2)NC(=O)[C@H](C(C)C)NC(=O)[C@@H]2CSSC[C@H](NC(=O)[C@H](C(C)C)NC(=O)[C@H](CCCNC(=N)N)NC1=O)C(=O)N[C@@H](Cc1ccc(O)cc1)C(=O)N[C@@H](CCCNC(=N)N)C(=O)N[C@@H](CCCNC(=N)N)C(=O)N[C@H](C(=O)N[C@@H](CC(N)=O)C(=O)O)CSSC[C@H](NC(=O)[C@H](Cc1ccccc1)NC(=O)CN)C(=O)N[C@@H](CO)C(=O)N[C@@H](Cc1ccc(O)cc1)C(=O)N[C@@H](C(C)C)C(=O)N2` [compound 7] (H-GFCSYVCVYRNGVRVCYRRCN-OH; disulfide 3-20, 7-16 (inferred); N-terminus and C-terminus assumed), the fraction unbound is 0.32.

`CC(C)[C@@H]1NC(=O)[C@@H]2CSSC[C@H](NC(=O)[C@H](C(C)C)NC(=O)[C@H](CCCNC(=N)N)NC(=O)[C@H](CCCCN)NC(=O)CNC(=O)[C@H](CC(N)=O)NC(=O)[C@H](CCCNC(=N)N)NC(=O)[C@H](Cc3ccc(O)cc3)NC1=O)C(=O)N[C@@H](Cc1ccc(O)cc1)C(=O)N[C@@H](CCCNC(=N)N)C(=O)N[C@@H](CCCNC(=N)N)C(=O)N[C@H](C(=O)N[C@@H](CC(N)=O)C(=O)O)CSSC[C@H](NC(=O)[C@H](Cc1ccccc1)NC(=O)CN)C(=O)N[C@@H](Cc1c[nH]c3ccccc13)C(=O)N[C@@H](Cc1ccc(O)cc1)C(=O)N[C@@H](C)C(=O)N2` [compound 80] (H-GFCWYACVYRNGKRVCYRRCN-OH; disulfide 3-20, 7-16 (inferred); N-terminus and C-terminus assumed) had an unbound share (fraction unbound) of 0.04.

Molecule `CC(C)[C@@H]1NC(=O)CNC(=O)[C@H](CC(N)=O)NC(=O)[C@H](CCCNC(=N)N)NC(=O)[C@H](CCCNC(=N)N)NC(=O)[C@H](C)NC(=O)[C@@H]2CSSC[C@H](NC(=O)[C@H](C(C)C)NC(=O)[C@H](CCCNC(=N)N)NC1=O)C(=O)N[C@@H](Cc1ccc(O)cc1)C(=O)N[C@@H](CCCNC(=N)N)C(=O)N[C@@H](CCCNC(=N)N)C(=O)N[C@H](C(=O)N[C@@H](CC(N)=O)C(=O)O)CSSC[C@H](NC(=O)[C@H](Cc1ccccc1)NC(=O)CN)C(=O)N[C@@H](Cc1c[nH]c3ccccc13)C(=O)N[C@@H](CC(N)=O)C(=O)N[C@@H](C)C(=O)N2` [compound 407] (H-GFCWNACARRNGVRVCYRRCN-OH; disulfide 3-20, 7-16 (inferred); N-terminus and C-terminus assumed) had a fraction unbound of 0.12.

In turn, `CC(C)[C@@H]1NC(=O)CNC(=O)[C@H](CC(N)=O)NC(=O)[C@H](CCCNC(=N)N)NC(=O)[C@H](Cc2ccc(O)cc2)NC(=O)[C@H](Cc2ccccc2)NC(=O)[C@@H]2CSSC[C@H](NC(=O)[C@H](C(C)C)NC(=O)[C@H](CCCNC(=N)N)NC1=O)C(=O)N[C@@H](Cc1c[nH]cn1)C(=O)N[C@@H](CCCNC(=N)N)C(=O)N[C@@H](CCCNC(=N)N)C(=O)N[C@H](C(=O)N[C@@H](CC(N)=O)C(=O)O)CSSC[C@H](NC(=O)[C@H](Cc1ccccc1)NC(=O)CN)C(=O)N[C@@H](Cc1c[nH]c3ccccc13)C(=O)N[C@@H](CC(N)=O)C(=O)N[C@@H](C(C)C)C(=O)N2` [compound 272] (H-GFCWNVCFYRNGVRVCHRRCN-OH; disulfide 3-20, 7-16) gave an unbound share (fraction unbound) of 0.26.

`CC(C)[C@@H]1NC(=O)CNC(=O)[C@H](CC(N)=O)NC(=O)[C@H](CCCNC(=N)N)NC(=O)[C@H](CCCNC(=N)N)NC(=O)[C@H](C(C)C)NC(=O)[C@@H]2CSSC[C@H](NC(=O)[C@H](C(C)C)NC(=O)[C@H](CCCNC(=N)N)NC1=O)C(=O)N[C@@H](Cc1c[nH]cn1)C(=O)N[C@@H](CCCNC(=N)N)C(=O)N[C@@H](CCCNC(=N)N)C(=O)N[C@H](C(=O)N[C@@H](CC(N)=O)C(=O)O)CSSC[C@H](NC(=O)[C@H](Cc1ccccc1)NC(=O)CN)C(=O)N[C@@H](Cc1c[nH]c3ccccc13)C(=O)N[C@@H](CC(N)=O)C(=O)N[C@@H](C(C)C)C(=O)N2` [compound 308] (H-GFCWNVCVRRNGVRVCHRRCN-OH; disulfide 3-20, 7-16 (inferred); N-terminus and C-terminus assumed): the fraction unbound was 0.06.

The molecule `CC(C)[C@@H]1NC(=O)CNC(=O)[C@H](CC(N)=O)NC(=O)[C@H](CCCNC(=N)N)NC(=O)[C@H](Cc2ccc(O)cc2)NC(=O)[C@H](C(C)C)NC(=O)[C@@H]2CSSC[C@H](NC(=O)[C@H](C(C)C)NC(=O)[C@H](CCCNC(=N)N)NC1=O)C(=O)N[C@@H](CCCCN)C(=O)N[C@@H](CCCNC(=N)N)C(=O)N[C@@H](CCCNC(=N)N)C(=O)N[C@H](C(=O)N[C@@H](CC(N)=O)C(=O)O)CSSC[C@H](NC(=O)[C@H](Cc1ccccc1)NC(=O)CN)C(=O)N[C@@H](Cc1c[nH]c3ccccc13)C(=O)N[C@@H](Cc1ccc(O)cc1)C(=O)N[C@@H](C(C)C)C(=O)N2` [compound 47] (H-GFCWYVCVYRNGVRVCKRRCN-OH; disulfide 3-20, 7-16 (inferred); N-terminus and C-terminus assumed) had a fraction unbound of 0.11.

For `CC(C)[C@@H]1NC(=O)CNC(=O)[C@H](CC(N)=O)NC(=O)[C@H](CCCNC(=N)N)NC(=O)[C@H](Cc2ccc(O)cc2)NC(=O)[C@H](C(C)C)NC(=O)[C@@H]2CSSC[C@H](NC(=O)[C@H](C)NC(=O)[C@H](CCCNC(=N)N)NC1=O)C(=O)N[C@@H](Cc1ccc(O)cc1)C(=O)N[C@@H](CCCNC(=N)N)C(=O)N[C@@H](CCCNC(=N)N)C(=O)N[C@H](C(=O)N[C@@H](CC(N)=O)C(=O)O)CSSC[C@H](NC(=O)[C@H](Cc1ccccc1)NC(=O)CN)C(=O)N[C@@H](Cc1c[nH]c3ccccc13)C(=O)N[C@@H](CCCNC(=N)N)C(=O)N[C@@H](C)C(=O)N2` [compound 319] (H-GFCWRACVYRNGVRACYRRCN-OH; disulfide 3-20, 7-16 (inferred); N-terminus and C-terminus assumed), the fraction unbound was 0.6.

In turn, `CC(C)[C@@H]1NC(=O)CNC(=O)[C@H](CC(N)=O)NC(=O)[C@H](CCCNC(=N)N)NC(=O)[C@H](CCCCN)NC(=O)[C@H](C)NC(=O)[C@@H]2CSSC[C@H](NC(=O)[C@H](C(C)C)NC(=O)[C@H](CCCNC(=N)N)NC1=O)C(=O)N[C@@H](Cc1ccc(O)cc1)C(=O)N[C@@H](CCCNC(=N)N)C(=O)N[C@@H](CCCNC(=N)N)C(=O)N[C@H](C(=O)N[C@@H](CC(N)=O)C(=O)O)CSSC[C@H](NC(=O)[C@H](Cc1ccccc1)NC(=O)CN)C(=O)N[C@@H](C)C(=O)N[C@@H](CCCNC(=N)N)C(=O)N[C@@H](C(C)C)C(=O)N2` [compound 363] (H-GFCARVCAKRNGVRVCYRRCN-OH; disulfide 3-20, 7-16 (inferred); N-terminus and C-terminus assumed) had a fraction unbound of 0.2.

The values are drawn from patent US20160158317A1, “Antimicrobial Peptide Variants and Polynucleotides Encoding Same” (Adenium Biotech A/S, priority 2010, published 2016).
